pIC50: −log10 of the molar value. Where a name gives a salt, the structure may show the parent alone.
Target: T1, DPP-IV (Homo sapiens, UniProt P27487)
T1 construct: an extract of human colon carcinoma cell line Caco-2 is used as the DPP IV source; endogenous in cells; host or cells: Caco-2 (human colon carcinoma), differentiated to induce DPP-IV expression; solubilised in Nonidet-P40 buffer
T1 sequence (P27487 whole entry): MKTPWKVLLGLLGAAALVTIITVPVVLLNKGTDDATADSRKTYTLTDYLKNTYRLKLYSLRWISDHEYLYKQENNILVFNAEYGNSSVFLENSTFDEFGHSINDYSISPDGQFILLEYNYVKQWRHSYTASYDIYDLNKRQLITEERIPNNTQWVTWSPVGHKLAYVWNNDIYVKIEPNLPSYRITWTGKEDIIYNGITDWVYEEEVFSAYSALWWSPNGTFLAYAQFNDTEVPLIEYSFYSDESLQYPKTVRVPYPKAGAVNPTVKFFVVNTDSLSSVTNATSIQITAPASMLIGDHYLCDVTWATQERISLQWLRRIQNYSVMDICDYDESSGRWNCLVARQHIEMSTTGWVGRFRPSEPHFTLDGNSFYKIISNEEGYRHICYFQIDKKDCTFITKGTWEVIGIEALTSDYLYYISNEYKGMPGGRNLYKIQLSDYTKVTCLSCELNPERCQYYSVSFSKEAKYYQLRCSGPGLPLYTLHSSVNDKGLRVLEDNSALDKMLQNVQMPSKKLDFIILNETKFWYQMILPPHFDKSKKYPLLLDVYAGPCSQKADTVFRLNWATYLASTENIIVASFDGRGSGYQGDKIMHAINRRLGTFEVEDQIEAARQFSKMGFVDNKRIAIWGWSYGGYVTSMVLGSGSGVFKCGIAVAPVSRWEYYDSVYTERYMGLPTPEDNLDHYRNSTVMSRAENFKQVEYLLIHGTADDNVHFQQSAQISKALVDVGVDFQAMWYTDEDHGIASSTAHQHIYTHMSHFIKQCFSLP
Assay: DPP-IV assay with extract of Caco-2 cells as DPP IV source, AFC substrate, fluorescence
Type: biochemical
Conditions: extract of human colon carcinoma cell line Caco-2 as DPP IV source; substrate 100 μM; 60 minutes at ambient temperature; read-out: DPP IV inhibition IC50
Experimental: The differentiation of the cells in order to induce the DPP-IV expression was carried out as described by Reiher et al. in an article entitled “Increased expression of intestinal cell line Caco-2”, which appeared in Proc. Natl. Acad. Sci. Vol. 90, pages 5757-5761 (1993). The cell extract was obtained from cells solubilised in a buffer (10 mM Tris HCl, 0.15 M NaCl, 0.04 t.i.u. aprotinin, 0.5% Nonidet-P40, pH 8.0) by centrifuging at 35,000 g for 30 minutes at 4° C. (to remove cell debris).
The DPP-IV assay was carried out as follows:
50 μl substrate solution (AFC; AFC is amido-4-trifluoromethylcoumarin), final concentration 100 μM, were placed in black microtitre plates. 20 μl of assay buffer (final concentrations 50 mM Tris HCl pH 7.8, 50 mM NaCl, 1% DMSO) was pipetted in. The reaction was started by adding 30 μl of solubilised Caco-2 protein (final concentration 0.14 μg of protein per well). The test substances to be investigated were typically added prediluted in 20 μl, and the volume of assay buffer was then reduced accordingly. The reaction was carried out at ambient temperature, incubating for 60 minutes. Then the fluorescence was measured in a Victor 1420 Multilabel Counter, the excitation wavelength being 405 nm and the emission wavelength being 535 nm. Blank readings (corresponding to 0% activity) were obtained in mixtures without any Caco-2 protein (volume replaced by assay buffer), control values (corresponding to 100% activity) were obtained in mixtures with no substance added. […]
Work on CC#CCn1c(N2CCCC(N)C2)nc2c1c(=O)n(CC1=NC(C)(C(=O)OC)Cc3ccccc31)c(=O)n2C (centres unmarked) [1(1), 1-[(3-methoxycarbonyl-3-methyl-3,4-dihydro-isoquinolin-1-yl]methyl]-3-methyl-7-(2-butyn-1-yl)-8-(3-amino-piperidin-1-yl)-xanthine] yielded a pIC50 of 7.49. Compound CC#CCn1c(N2CCCC(N)C2)nc2c1c(=O)n(Cc1nc3ccccc3c3ccccc13)c(=O)n2C (centres unmarked) [1(3), 1-[(phenanthridin-6-yl)methyl]-3-methyl-7-(2-butyn-1-yl)-8-(3-amino-piperidin-1-yl)-xanthine-dihydrochloride] has a pIC50 of 8.30. Compound CC#CCn1c(N2CCCC(N)C2)nc2c1c(=O)n(Cc1nc3c(c4ccccc14)CCCC3)c(=O)n2C (centres unmarked) [1(4), 1-[(1,2,3,4-tetrahydro-phenanthridin-6-yl)methyl]-3-methyl-7-(2-butyn-1-yl)-8-(3-amino-piperidin-1-yl)-xanthine x trifluoroacetic acid] has a pIC50 of 8.30. Compound CC#CCn1c(N2CCCC(N)C2)nc2c1c(=O)n(CC1=NC(C(F)(F)F)Cc3ccccc31)c(=O)n2C (centres unmarked) [1(7), 1-[(3-trifluoromethyl-3,4-dihydro-isoquinolin-1-yl)methyl]-3-methyl-7-(2-butyn-1-yl)-8-(3-amino-piperidin-1-yl)-xanthine x trifluoroacetic acid] has a pIC50 of 7.96. CC#CCn1c(N2CCC[C@@H](N)C2)nc2c1c(=O)n(CC1=Nc3ccccc3Oc3ccccc31)c(=O)n2C [1(8), 1-[(dibenzo[b,f][1,4]oxazepin-11-yl)methyl]-3-methyl-7-(2-butyn-1-yl)-8-((R)-3-amino-piperidin-1-yl)-xanthine] showed a pIC50 of 8.40. CC#CCn1c(N2CCCC(N)C2)nc2c1c(=O)n(CC1=Nc3ccccc3CN1)c(=O)n2C (centres unmarked) [1(10), 1-[(3,4-dihydro-quinazolin-2-yl)methyl]-3-methyl-7-(2-butyn-1-yl)-8-(3-amino-piperidin-1-yl)-xanthine] showed a pIC50 of 8.10. With CC#CCn1c(N2CCCC(N)C2)nc2c1c(=O)n(CC1=Nc3ccccc3N(C)c3ccccc31)c(=O)n2C (centres unmarked) [1(12), 1-[(5-methyl-5H-dibenzo[b,e][1,4]diazepin-11-yl)methyl]-3-methyl-7-(2-butyn-1-yl)-8-(3-amino-piperidin-1-yl)-xanthine] the pIC50 was 7.85. CC#CCn1c(N2CCCC(N)C2)nc2c1c(=O)n(Cc1ccc3nonc3c1)c(=O)n2C (centres unmarked) [1(15), 1-[(benzo[1,2,5]oxadiazol-5-yl)methyl]-3-methyl-7-(2-butyn-1-yl)-8-(3-amino-piperidin-1-yl)-xanthine] showed a pIC50 of 7.96. With CC#CCn1c(N2CCC[C@@H](N)C2)nc2c1c(=O)n(Cc1nc3ccccc3c3ccccc13)c(=O)n2C1CC1 [1(20), 1-[(phenanthridin-6-yl)methyl]-3-cyclopropyl-7-(2-butyn-1-yl)-8-((R)-3-amino-piperidin-1-yl)-xanthine] the pIC50 was 8.00. With CC#CCn1c(N2CCCC(N)C2)nc2c1c(=O)n(Cc1nc3ccccc3c3ncccc13)c(=O)n2C (centres unmarked) [1(25), 1-[(benzo[h][1,6]naphthyridin-5-yl)methyl]-3-methyl-7-(2-butyn-1-yl)-8-(3-amino-piperidin-1-yl)-xanthine] the pIC50 was 8.15. With CC#CCn1c(N2CCCC(N)C2)nc2c1c(=O)n(Cc1nc3ccccc3c3ccnn13)c(=O)n2C (centres unmarked) [1(26), 1-[(pyrazolo[1,5-c]quinazolin-5-yl)methyl]-3-methyl-7-(2-butyn-1-yl)-8-(3-amino-piperidin-1-yl)-xanthine] the pIC50 was 8.15. With CC#CCn1c(N2CCCC(N)C2)nc2c1c(=O)n(Cc1nc3ncccc3c3ccccc13)c(=O)n2C (centres unmarked) [1(27), 1-[(benzo[c][1,8]naphthyridin-6-yl)methyl]-3-methyl-7-(2-butyn-1-yl)-8-(3-amino-piperidin-1-yl)-xanthine] the pIC50 was 8.70. CC#CCn1c(N2CCC[C@@H](N)C2)nc2c1c(=O)n(Cc1nc3cccnc3c3ccccc13)c(=O)n2C [1(28), 1-[(benzo[c][1,5]naphthyridin-6-yl)methyl]-3-methyl-7-(2-butyn-1-yl)-8-((R)-3-amino-piperidin-1-yl)-xanthine] showed a pIC50 of 8.70. CC#CCn1c(N2CCC[C@@H](N)C2)nc2c1c(=O)n(CC1=Nc3cccc4cccc(c34)N1)c(=O)n2C [1(29), 1-[(1H-perimidin-2-yl)methyl]-3-methyl-7-(2-butyn-1-yl)-8-((R)-3-amino-piperidin-1-yl)-xanthine] showed a pIC50 of 8.52. With CC#CCn1c(N2CCC[C@@H](N)C2)nc2c1c(=O)n(Cc1cc3nccnc3c3ccccc13)c(=O)n2C [1(30), 1-[(benzo[f]quinoxalin-6-yl)methyl]-3-methyl-7-(2-butyn-1-yl)-8-((R)-3-amino-piperidin-1-yl)-xanthine] the pIC50 was 8.52. CC#CCn1c(N2CCCC(N)C2)nc2c1c(=O)n(Cc1cn3c(ccc4ccccc43)n1)c(=O)n2C (centres unmarked) [1(32)] showed a pIC50 of 8.40. Work on CC#CCn1c(N2CCC[C@@H](N)C2)nc2c1c(=O)n(Cc1nc3ccccc3c3ccccc13)c(=O)n2C [1(33), 1-[(phenanthridin-6-yl)methyl]-3-methyl-7-(2-butyn-1-yl)-8-((R)-3-amino-piperidin-1-yl)-xanthine] yielded a pIC50 of 8.40. Compound C/C=C/Cn1c(N2CCC[C@@H](N)C2)nc2c1c(=O)n(CC1=NCC(=O)Nc3ccccc31)c(=O)n2C [Example 1(2), 1-[(2-oxo-2,3-dihydro-1H-benzo[e][1,4]diazepin-5-yl)methyl]-3-methyl-7-((E)-2-buten-1-yl)-8-((R)-3-amino-piperidin-1-yl)-xanthine] has a pIC50 of 8.22. With CC(C)=CCn1c(N2CCCC(N)C2)nc2c1c(=O)n(CC1=CS(=O)(=O)N(C)c3ccccc31)c(=O)n2C (centres unmarked) [Example 1, 1-[(1-methyl-2,2-dioxo-1H-benzo[c][1,2]thiazin-4-yl)methyl]-3-methyl-7-(3-methyl-2-buten-1-yl)-8-(3-amino-piperidin-1-yl)-xanthine] the pIC50 was 7.89. In the case of CC#CCn1c(N2CCCC(N)C2)nc2c1c(=O)n(CC1=NCCOc3ccccc31)c(=O)n2C (centres unmarked) [Example 2, 1-[(2,3-dihydro-benzo[f][1,4]oxazepin-5-yl)methyl]-3-methyl-7-(2-butyn-1-yl)-8-(3-amino-piperidin-1-yl)-xanthine], the pIC50 was 8.22. In the case of CC(C)=CCn1c(N2CCCC(N)C2)nc2c1c(=O)n(/C=C1\NC(=O)c3ccccc31)c(=O)n2C (centres unmarked) [Example 3, 1-[(3-oxo-2,3-dihydro-isoindol-1-ylidene)methyl]-3-methyl-7-(3-methyl-2-buten-1-yl)-8-(3-amino-piperidin-1-yl)-xanthine], the pIC50 was 7.70.

Tested on: rats
Assay: Tolerability after oral administration to rats (behaviour)
Type: in vivo, rat
Conditions: 10 mg/kg by oral route
For C/C=C/Cn1c(N2CCC[C@@H](N)C2)nc2c1c(=O)n(CC1=NCC(=O)Nc3ccccc31)c(=O)n2C [Example 1(2), 1-[(2-oxo-2,3-dihydro-1H-benzo[e][1,4]diazepin-5-yl)methyl]-3-methyl-7-((E)-2-buten-1-yl)-8-((R)-3-amino-piperidin-1-yl)-xanthine], the “changes in the animals' behaviour” value was “no changes in the animals' behaviour could be detected”.

Tested on: not given
Assay: not given
Conditions: not given
CC(C)=CCn1c(N2CCCC(N)C2)nc2c1c(=O)n(CC1=CS(=O)(=O)N(C)c3ccccc31)c(=O)n2C (centres unmarked) [Example 1, 1-[(1-methyl-2,2-dioxo-1H-benzo[c][1,2]thiazin-4-yl)methyl]-3-methyl-7-(3-methyl-2-buten-1-yl)-8-(3-amino-piperidin-1-yl)-xanthine] showed a melting point of 200 to 205 °C.

Reference: US7696212B2, “Xanthine derivatives, the preparation thereof and their use as pharmaceutical compositions” (Boehringer Ingelheim Pharma GmbH and Co. KG, priority 2002, dated 2010)
